In one data set the target is T1, ETA (h) (Homo sapiens, UniProt P25101).
T1 construct: purchased Eurofins Pharma Discovery Services (CEREP diversity panel)
Kind of data set: Cerep binding, agonist radioligand. Particulars: read-out: % Inhibition of Control Specific Binding.

Another data set concerns the target T2, B2 (h) (Homo sapiens, UniProt P30411).
T2 construct: purchased Eurofins Pharma Discovery Services (CEREP diversity panel)
Kind of data set: Cerep binding, agonist radioligand. Particulars: read-out: % Inhibition of Control Specific Binding.

In the next data set the target is T3, V2 (h) (Homo sapiens, UniProt P30518).
T3 construct: purchased Eurofins Pharma Discovery Services (CEREP diversity panel)
The data set is described as follows: Cerep binding, agonist radioligand. Particulars: read-out: % Inhibition of Control Specific Binding.

The next data set relates to MIA PaCa-2 cells. Kind of data set: RTCA growth profile. It is filed as cell-based, human. Particulars: MIA PaCa-2, doses higher than 3 μM. As to the method: (§1) RTCA was performed using 16-well E-plates on the Dual Plate xCELLigence instrument (Roche Applied Science, Indianapolis, IN). This system measures a dimensionless parameter called cell index, which evaluates the ionic environment at an electrode/solution interface and integrates information on cell number. Depending on the cell line 5 × 10^3–1 × 10^4 cells were plated in each well of the 16-well plates in 200 μl of cell culture medium. After seeding, cells were allowed to settle for 30 min at room temperature before being inserted into the xCELLigence instrument in a humidified incubator at 37 °C with 10% CO2. For RTCA experiments assaying cells stably expressing the inducible shRNA transgene, cells were seeded onto the E-plates in medium supplemented with 200 ng ml^−1 doxycycline. […] The small-molecule inhibitors were added at indicated time points and in the indicated concentrations. […] All assays were performed in duplicates. The cell index was normalized to 1 at the time point of drug administration.

For the next data set, the system named is Capan-1 cells. The data set is described as follows: RTCA growth profile. It is filed as cell-based, human. Particulars: Capan-1, doses up to 24 μM. As to the method: as §1
For the next data set, the system named is SKCa channel. Kind of data set: Cerep binding, antagonist radioligand. Particulars: 5 µM.
A further data set relates to S6P phosphorylation. Kind of data set: western blot, S6P phosphorylation in PANC-1. (In western blotting, separated proteins are transferred to a membrane and probed.)
Data set [1] has as its target T4, phosphatase 1B (h) (PTP1B) (Homo sapiens, UniProt P18031).
T4 construct: Eurofins Pharma Discovery Services (CEREP diversity panel, outsourced assay)
The data set is described as follows: Cerep enzyme and cell-based assays. The format is biochemical. Particulars: read-out: % Inhibition of Control Values.

The next data set concerns the target T5, IP (PGI2) (h) (Homo sapiens, UniProt P43119).
T5 construct: purchased Eurofins Pharma Discovery Services (CEREP diversity panel)
The data set is described as follows: Cerep binding, agonist radioligand. Particulars: read-out: % Inhibition of Control Specific Binding.

A further data set concerns Erk phosphorylation. The data set is described as follows: western blot, Erk phosphorylation in PANC-1.
For data set [2] the following is noted: mouse, in vivo.
Protocol: (§10) Determination of pharmacokinetic properties in vivo
50% physiological saline / 40% water.
(§11) The regression equation of the calibration curve was used to calculate plasma concentrations. Pharmacokinetic parameters were calculated using the PKSolver
(§12) Animal experiments and care were conducted at Synovo GmbH (Tübingen, Germany) in accordance with the guidelines of institutional authorities and approved
A further data set has as its system ER (non-selective) (h). The data set is described as follows: Cerep binding, agonist radioligand. On the set-up: species or system human. Particulars: 5 µM.
For another data set, the target named is T6, GABA transaminase (Rattus norvegicus, UniProt P50554).
T6 construct: Eurofins Pharma Discovery Services (CEREP diversity panel, outsourced assay)
Kind of data set: Cerep enzyme and cell-based assays. Particulars: read-out: % Inhibition of Control Values. It is filed as biochemical.

The next data set is described as follows: in vivo. Particulars: female, NMRI, mouse, 3 mg/kg.
The target of a further data set is T7, NK2 (h) (Homo sapiens, UniProt P21452).
T7 construct: purchased Eurofins Pharma Discovery Services (CEREP diversity panel)
Kind of data set: Cerep binding, agonist radioligand. Particulars: read-out: % Inhibition of Control Specific Binding.

A further data set relates to Panc-Tu-I cells. The data set is described as follows: long-term time-lapse microscopy. Particulars: 72 h, 5 μM Deltarasin or 10 μM Deltazinone 1.
Data set [3] has as its target choline transporter (CHT1) (h) (Homo sapiens, UniProt Q9GZV3). The data set is described as follows: Cerep binding, antagonist radioligand. Particulars: read-out: % Inhibition of Control Specific Binding.
Another data set deals with T8, CENP-E (h) (Homo sapiens, UniProt Q02224).
T8 construct: Eurofins Pharma Discovery Services (CEREP diversity panel, outsourced assay)
The data set is described as follows: Cerep enzyme and cell-based assays. Particulars: read-out: % Inhibition of Control Values. The format is biochemical.

For a further data set, the target named is T9, acetylcholinesterase (h) (Homo sapiens, UniProt P22303).
T9 construct: Eurofins Pharma Discovery Services (CEREP diversity panel, outsourced assay)
Kind of data set: Cerep enzyme and cell-based assays. The format is biochemical. Particulars: read-out: % Inhibition of Control Values.

Another data set addresses T10, tyrosine hydroxylase (Rattus norvegicus, UniProt P04177).
T10 construct: Eurofins Pharma Discovery Services (CEREP diversity panel, outsourced assay)
Kind of data set: Cerep enzyme and cell-based assays. The format is biochemical. Particulars: read-out: % Inhibition of Control Values.

Data set [4] addresses T11, MAO-B (h) recombinant enzyme (Homo sapiens, UniProt P27338).
T11 construct: Eurofins Pharma Discovery Services (CEREP diversity panel, outsourced assay)
Kind of data set: Cerep enzyme and cell-based assays. It is filed as biochemical. Particulars: read-out: % Inhibition of Control Values.

The next data set concerns the target T12, HDAC11 (h) (Homo sapiens, UniProt Q96DB2).
T12 construct: Eurofins Pharma Discovery Services (CEREP diversity panel, outsourced assay)
Kind of data set: Cerep enzyme and cell-based assays. The format is biochemical. Particulars: read-out: % Inhibition of Control Values.

Data set [5] deals with T13, interaction between mCitrine-KRas and mCherry-PDEδ (Homo sapiens, UniProt O43924).
T13 construct: expressed in transfected cells; host or cells: MDCK cells, transient transfection
The data set is described as follows: FLIM-FRET, mCitrine-KRas/mCherry-PDEδ in MDCK cells after Bryostatin. It is filed as cell-based, canine. Particulars: 5 μM inhibitor after 1 μM Bryostatin-1, MDCK cells.
Description: To measure whether both inhibitors also affect the interaction of KRas with PDEδ, MDCK cells were transiently transfected with mCitrine-KRas and mCherry-PDEδ. […] To increase the fraction of KRas that interacts with PDEδ, the Protein Kinase C (PKC) activator Bryostatin, which induces serine (S181) phosphorylation on KRas[17], was applied, resulting in a reduced electrostatic interaction with the PM and increased cytosolic pool of mCitrine-KRas.
Fluorescence lifetime images were acquired using a confocal laser-scanning microscope (FV1000, Olympus) equipped with a time-correlated single-photon counting module (LSM Upgrade Kit, Picoquant). For detection of the donor (mCitrine), the sample was excited using a 470-nm diode laser (LDH 470, Picoquant) at a 36-MHz repetition frequency. […] Photons were detected using a single-photon counting avalanche photodiode (PDM Series, MPD) and timed using a single-photon counting module (PicoHarp 300, Picoquant).
Intensity thresholds were applied to segment the cells from the background fluorescence. Data were analysed via global analysis[23] to obtain images of the molar fraction (α) of interacting mCitrine-Rheb with mCherry-PDEδ. […] Dose–response relationships were determined by plotting obtained α per addition, using equation:

The target of the next data set is T14, HDAC6 (h) (Homo sapiens, UniProt Q9UBN7).
T14 construct: Eurofins Pharma Discovery Services (CEREP diversity panel, outsourced assay)
The data set is described as follows: Cerep enzyme and cell-based assays. It is filed as biochemical. Particulars: read-out: % Inhibition of Control Values.

The subject of another data set is PANC-1. The data set is described as follows: CellTiter-Glo cell viability. It is filed as cell-based, human. Particulars: PANC-1, CellTiter-Glo, n = 10. The method, then:
(§2) Biochemical and Pharmacological Assays
(§3) Determination of cell viability using CellTiter-Glo®
(§4) Cells were seeded on day 1 at 500 cells per well to assure assay linearity and optimal signal intensity. After incubation for 24h in humidified incubator at 37°C, 5% CO2, compounds / DMSO were added at different concentrations. Cells were further incubated for 72 h at 37°C and 5% CO2. Cells treated with the compound vehicle (DMSO) […].
(§5) At day 5 the CellTiter-Glo® Reagent was prepared according to the instructions of the manufacturer (Promega): The Reagent was mixed 1:1 with cell culture medium.
(§6) Thereon, mixture and assay plates were equilibrated at room temperature for 20 min.
(§7) Equal volumes of the reagent-medium-mixture were added to the volume of culture medium present in each well. The plates were mixed at 200 rpm for 2 minutes on an orbital shaker and afterwards incubated at room temperature for 10 minutes.
(§8) Following incubation the luminescence was recorded on a Victor microplate reader (Perkin Elmer) using a 200 ms integration time. The data was analyzed with Excel using the XLFIT Plugin (dose response Fit 205) for IC50-determination.
(§9) As quality control the Z´ -factor was calculated from 16 positive and negative control values. Only assay results showing a Z´ -factor ≥ 0.5 were used for further analysis.
On the technique in general: In ATP-based viability assays light output follows the ATP content of the culture.

In another data set the test system is Panc-Tu-I. The data set is described as follows: CellTiter-Glo cell viability. The format is cell-based, human. The method, then:
as §2, §3, §4, §5, §6, §7, §8, §9

Setting [6] is: PANC-1, 20 μM, longer incubation times (>3 h).
The mark [7] stands for this setting: Homo sapiens, 72 h, read-out: IC50 anti-proliferative activity.

Molecules are shown by their SMILES.

Here are results for two compounds from publication PMC4843002, “Identification of pyrazolopyridazinones as PDEδ inhibitors” (Nature Communications, 2016).

T7 sequence (P21452 whole entry): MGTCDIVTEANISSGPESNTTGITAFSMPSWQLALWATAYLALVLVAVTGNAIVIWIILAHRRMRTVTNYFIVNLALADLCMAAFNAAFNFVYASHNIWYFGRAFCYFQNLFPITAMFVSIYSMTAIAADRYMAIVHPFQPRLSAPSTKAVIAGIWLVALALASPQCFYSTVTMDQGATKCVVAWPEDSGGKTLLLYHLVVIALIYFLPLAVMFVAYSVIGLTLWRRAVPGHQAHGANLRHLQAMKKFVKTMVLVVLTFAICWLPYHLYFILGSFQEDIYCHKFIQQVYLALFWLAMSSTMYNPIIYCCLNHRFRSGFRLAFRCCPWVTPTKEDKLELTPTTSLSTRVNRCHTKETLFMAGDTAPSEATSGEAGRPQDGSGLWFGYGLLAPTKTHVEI
T5 sequence (P43119 whole entry): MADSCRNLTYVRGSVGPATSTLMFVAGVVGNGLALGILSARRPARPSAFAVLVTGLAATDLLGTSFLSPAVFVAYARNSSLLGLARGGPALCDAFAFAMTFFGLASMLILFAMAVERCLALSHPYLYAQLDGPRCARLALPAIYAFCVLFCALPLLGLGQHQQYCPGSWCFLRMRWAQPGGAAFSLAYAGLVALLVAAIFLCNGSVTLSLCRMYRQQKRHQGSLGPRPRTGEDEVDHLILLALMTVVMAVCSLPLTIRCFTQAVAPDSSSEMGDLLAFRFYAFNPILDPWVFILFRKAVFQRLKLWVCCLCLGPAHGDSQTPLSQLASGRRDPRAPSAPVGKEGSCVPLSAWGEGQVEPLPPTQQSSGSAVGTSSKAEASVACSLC
T1 sequence (P25101 21-427): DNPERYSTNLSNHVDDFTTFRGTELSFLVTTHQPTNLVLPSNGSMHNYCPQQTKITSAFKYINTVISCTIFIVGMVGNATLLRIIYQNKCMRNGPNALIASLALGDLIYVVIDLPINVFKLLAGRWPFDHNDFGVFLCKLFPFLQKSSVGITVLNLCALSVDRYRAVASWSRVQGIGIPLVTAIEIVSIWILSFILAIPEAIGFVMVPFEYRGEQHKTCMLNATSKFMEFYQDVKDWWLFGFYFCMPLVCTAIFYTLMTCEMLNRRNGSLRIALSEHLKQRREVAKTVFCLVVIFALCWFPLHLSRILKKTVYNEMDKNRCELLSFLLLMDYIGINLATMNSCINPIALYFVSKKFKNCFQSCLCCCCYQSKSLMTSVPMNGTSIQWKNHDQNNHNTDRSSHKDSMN
Sequence of choline transporter (CHT1) (h) (Q9GZV3 whole entry): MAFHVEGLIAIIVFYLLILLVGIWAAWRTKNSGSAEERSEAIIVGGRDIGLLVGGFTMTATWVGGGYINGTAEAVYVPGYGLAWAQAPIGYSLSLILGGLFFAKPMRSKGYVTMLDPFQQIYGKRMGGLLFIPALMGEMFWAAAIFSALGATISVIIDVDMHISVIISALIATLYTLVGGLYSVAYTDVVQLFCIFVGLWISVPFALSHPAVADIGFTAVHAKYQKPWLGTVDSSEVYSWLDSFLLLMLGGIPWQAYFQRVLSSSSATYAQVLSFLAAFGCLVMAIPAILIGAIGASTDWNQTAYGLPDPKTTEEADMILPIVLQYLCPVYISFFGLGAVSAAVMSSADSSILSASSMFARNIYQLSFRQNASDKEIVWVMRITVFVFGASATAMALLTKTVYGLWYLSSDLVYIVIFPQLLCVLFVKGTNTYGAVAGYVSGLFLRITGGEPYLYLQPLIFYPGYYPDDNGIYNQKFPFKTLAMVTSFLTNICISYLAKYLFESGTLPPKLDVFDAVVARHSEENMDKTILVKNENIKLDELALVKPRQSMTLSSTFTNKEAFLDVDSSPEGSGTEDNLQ
T3 sequence (P30518 whole entry): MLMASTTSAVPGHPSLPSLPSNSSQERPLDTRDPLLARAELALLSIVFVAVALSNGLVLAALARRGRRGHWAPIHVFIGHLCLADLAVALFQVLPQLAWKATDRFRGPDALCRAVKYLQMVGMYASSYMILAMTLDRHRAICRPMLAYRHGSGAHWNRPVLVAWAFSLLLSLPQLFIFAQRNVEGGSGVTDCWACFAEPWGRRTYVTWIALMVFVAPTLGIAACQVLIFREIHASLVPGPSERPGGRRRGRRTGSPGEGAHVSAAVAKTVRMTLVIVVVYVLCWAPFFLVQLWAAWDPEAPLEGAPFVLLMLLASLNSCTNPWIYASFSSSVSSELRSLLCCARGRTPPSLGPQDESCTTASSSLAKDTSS
T2 sequence (P30411 whole entry): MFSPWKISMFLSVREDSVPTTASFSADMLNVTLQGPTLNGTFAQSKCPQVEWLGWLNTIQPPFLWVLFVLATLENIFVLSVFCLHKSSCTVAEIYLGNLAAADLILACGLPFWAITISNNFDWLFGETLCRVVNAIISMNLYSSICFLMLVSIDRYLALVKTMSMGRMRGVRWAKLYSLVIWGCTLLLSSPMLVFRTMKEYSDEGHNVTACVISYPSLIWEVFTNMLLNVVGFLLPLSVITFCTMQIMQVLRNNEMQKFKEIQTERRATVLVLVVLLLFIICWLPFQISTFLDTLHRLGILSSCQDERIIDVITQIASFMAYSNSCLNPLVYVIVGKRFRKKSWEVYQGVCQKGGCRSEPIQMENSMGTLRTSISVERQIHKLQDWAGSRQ
T10 sequence (P04177 whole entry): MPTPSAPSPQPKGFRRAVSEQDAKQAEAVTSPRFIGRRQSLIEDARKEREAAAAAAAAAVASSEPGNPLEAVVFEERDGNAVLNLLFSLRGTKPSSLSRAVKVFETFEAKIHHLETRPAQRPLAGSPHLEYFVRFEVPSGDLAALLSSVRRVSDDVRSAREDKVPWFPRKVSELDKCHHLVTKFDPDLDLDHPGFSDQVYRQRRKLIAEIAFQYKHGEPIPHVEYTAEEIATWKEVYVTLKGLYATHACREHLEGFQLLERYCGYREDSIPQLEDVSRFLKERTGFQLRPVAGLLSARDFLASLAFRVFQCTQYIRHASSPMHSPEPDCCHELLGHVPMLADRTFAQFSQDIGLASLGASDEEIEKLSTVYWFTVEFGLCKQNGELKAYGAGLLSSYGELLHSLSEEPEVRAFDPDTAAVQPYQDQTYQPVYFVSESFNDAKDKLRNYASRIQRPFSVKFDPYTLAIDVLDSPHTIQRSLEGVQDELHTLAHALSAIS
T12 sequence (Q96DB2 whole entry): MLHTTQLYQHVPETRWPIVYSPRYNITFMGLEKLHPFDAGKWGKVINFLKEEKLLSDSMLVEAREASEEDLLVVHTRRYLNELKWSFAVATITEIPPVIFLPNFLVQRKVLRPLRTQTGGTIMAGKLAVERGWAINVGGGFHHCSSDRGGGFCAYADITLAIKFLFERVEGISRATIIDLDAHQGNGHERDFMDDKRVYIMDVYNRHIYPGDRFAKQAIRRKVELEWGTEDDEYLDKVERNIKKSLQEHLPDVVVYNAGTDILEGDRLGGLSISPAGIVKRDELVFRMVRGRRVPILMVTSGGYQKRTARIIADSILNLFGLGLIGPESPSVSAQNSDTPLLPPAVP
T9 sequence (P22303 32-614): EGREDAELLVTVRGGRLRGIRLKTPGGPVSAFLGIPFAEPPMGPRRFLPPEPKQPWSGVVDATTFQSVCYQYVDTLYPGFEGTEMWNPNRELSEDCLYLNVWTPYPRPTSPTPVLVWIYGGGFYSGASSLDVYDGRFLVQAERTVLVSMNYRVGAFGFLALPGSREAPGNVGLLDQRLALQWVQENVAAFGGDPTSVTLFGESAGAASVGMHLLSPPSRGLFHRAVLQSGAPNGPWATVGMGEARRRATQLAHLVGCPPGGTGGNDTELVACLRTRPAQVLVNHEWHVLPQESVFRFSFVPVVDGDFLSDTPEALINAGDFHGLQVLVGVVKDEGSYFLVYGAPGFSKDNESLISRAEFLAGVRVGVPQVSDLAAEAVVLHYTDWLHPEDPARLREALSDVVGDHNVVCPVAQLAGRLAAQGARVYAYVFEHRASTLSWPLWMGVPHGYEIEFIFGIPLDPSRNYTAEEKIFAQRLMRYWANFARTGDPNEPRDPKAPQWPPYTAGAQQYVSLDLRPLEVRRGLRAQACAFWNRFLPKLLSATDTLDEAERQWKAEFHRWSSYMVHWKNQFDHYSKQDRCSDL
T11 sequence (P27338 whole entry): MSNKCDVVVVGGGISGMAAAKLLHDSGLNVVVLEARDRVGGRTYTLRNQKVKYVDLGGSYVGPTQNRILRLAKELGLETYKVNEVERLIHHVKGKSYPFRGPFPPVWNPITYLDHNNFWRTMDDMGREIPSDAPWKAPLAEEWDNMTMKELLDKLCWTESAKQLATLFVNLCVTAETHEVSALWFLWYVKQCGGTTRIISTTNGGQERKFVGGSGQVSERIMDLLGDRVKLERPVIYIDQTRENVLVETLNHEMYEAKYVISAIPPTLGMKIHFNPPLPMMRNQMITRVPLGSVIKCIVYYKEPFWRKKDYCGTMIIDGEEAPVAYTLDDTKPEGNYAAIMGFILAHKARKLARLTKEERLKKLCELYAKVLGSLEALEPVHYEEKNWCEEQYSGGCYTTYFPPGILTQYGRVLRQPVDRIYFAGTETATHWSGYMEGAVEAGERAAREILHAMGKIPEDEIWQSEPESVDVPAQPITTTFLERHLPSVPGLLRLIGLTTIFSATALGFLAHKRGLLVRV
T4 sequence (P18031 whole entry): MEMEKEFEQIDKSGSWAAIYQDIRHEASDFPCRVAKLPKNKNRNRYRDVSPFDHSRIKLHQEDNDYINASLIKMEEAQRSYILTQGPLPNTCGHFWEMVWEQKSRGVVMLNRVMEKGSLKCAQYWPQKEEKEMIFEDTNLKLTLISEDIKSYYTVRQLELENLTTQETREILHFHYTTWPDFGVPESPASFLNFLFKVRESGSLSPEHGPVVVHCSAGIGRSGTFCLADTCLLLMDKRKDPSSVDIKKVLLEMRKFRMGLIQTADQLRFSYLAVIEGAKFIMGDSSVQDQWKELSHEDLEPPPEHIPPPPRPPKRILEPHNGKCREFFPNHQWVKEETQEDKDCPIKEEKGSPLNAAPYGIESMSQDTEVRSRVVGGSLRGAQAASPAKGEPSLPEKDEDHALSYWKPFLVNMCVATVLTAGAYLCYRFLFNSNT
Protocol for Erk phosphorylation: (§13) To examine whether PDEδ inhibition by Deltarasin and Deltazinone 1 downregulates the signal transduction via these pathways, we examined the phosphorylation of extracellular signal regulated kinase (Erk) and S6 Ribosomal Protein (S6P) in the oncogenic KRas-dependent Panc-Tu-1 and KRas-independent PANC-1 cells. […] Cells were lysed with RIPA-buffer (20 mM Tris pH 7.5, 150 mM NaCl, 0.5 mM Na2 EDTA, 1 % sodium deoxycholate, 0.1% sodium dodecyl sulfate, 1% IGEPAL supplemented with Complete Mini EDTA-free protease inhibitor (Roche Applied Science) and 1% phosphatase inhibitor cocktail 2 and 3 (P5726 and P0044, Sigma Aldrich), scraped off after 5 min on ice and centrifuged at 14,000g for 20 min at 4 °C. SDS–polyacrylamide gel electrophoresis was carried out with 10–25 μg of whole-cell lysate from each sample. The gels were blotted onto polyvinylidene difluoride membrane (Millipore) and blocked for 1 h at room temperature. […] Blots were scanned on a LI-COR Odyssey imaging system.
(§14) Western blots were quantified using ImageJ. The background of the blots was subtracted by applying the rolling ball subtraction with a radius of 50 pixels. Afterwards the integrated intensity of the bands was measured.
Protocol for S6P phosphorylation: as §13, §14
Protocol for in vivo: as §10
50% physiological saline / 40% water.
as §11, §12

Broadly, the inhibition is the change of the read-out against control, counted positive when it falls. A word on the Tmax: it is the time at which the peak concentration occurs. A word on the Vd: it is the apparent volume that relates the amount in the body to the concentration in plasma or blood. Broadly, the clearance is a measure of how efficiently the substance is removed, as volume per time. High values mean a high capacity for elimination, low ones a low capacity for elimination. Broadly, the AUC(0-inf) is the area under the concentration-time curve extrapolated to infinity. One may read the AUC(0-t) as exposure summed from dosing to a finite time, without extrapolation to infinity. In general, half-life refers to how long it takes for the measured level to halve. A higher half-life goes with slow decline. Regarding `Cc1ccc(-n2nc3c(=O)n(CCCC(=O)NCC(C)c4ccccc4)nc(C)c3c2C)cc1` (stereo not drawn) [2k], the inhibition at 5 µM on ETA (h) is -7%; on B2 (h) it was -5%; on V2 (h), -4%; in [1], 2%; at IP (PGI2) (h) it was -4%; at GABA transaminase, 0%. The inhibition at 5 µM is -4% at NK2 (h) and 18% in data set [3]. The “time after administration at which decreasing cell indices indicated cell death” value in the data set on MIA PaCa-2 cells is listed as around 40 h. For the same compound, the effect on growth entry in the data set on Capan-1 cells is “strong growth inhibition but not cell death”. Also, the “% Inhibition of Control Specific Binding” value is reported as 0% in the data set with SKCa channel and -15% in the data set with ER (non-selective) (h). Besides, the S6P phosphorylation entry in the data set on S6P phosphorylation (setting [6]) is recorded as “remained unaffected”. In addition, the “EGF-induced Erk phosphorylation” value in the data set on Erk phosphorylation (setting [6]) was “remained unaffected”; in the data set with Erk phosphorylation (PANC-1, 1 h, 5 μM Deltarasin or 20 μM Deltazinone 1, 5 min EGF) it was “did not significantly affect”. Moreover, the metabolism in mice result in [2] is “rapidly metabolized”. Also, the Tmax in “in vivo” (ip) stood at 4.8 min. This compound also yielded a C0 in the data set “in vivo” (iv) of 3380 ng/mL. For the same compound, the Vd in the data set “in vivo” (iv) came to 1.18 L/kg. The same compound had a clearance in the data set “in vivo” (iv) of 30.8 mL/min/kg. The AUC(0-inf) in “in vivo” (iv, AUC 0-inf) was determined as 1620 ng·h/mL. For the same compound, in “in vivo” (iv, AUC 0-t), the AUC(0-t) turned out to be 1620 ng·h/mL. In the data set “in vivo” (iv, t1/2), the half-life was 21 min. Besides, in the data set with Panc-Tu-I cells, the “cell death in time-lapse microscopy” value is recorded as “cell death”.
By IC50 is commonly meant the midpoint of a concentration-inhibition curve. A word on the Hill coefficient: it is a measure of the steepness of the concentration-response curve. For `c1ccc(Cn2c(-c3ccc(OC[C@H](C4CCNCC4)n4c(-c5ccccc5)nc5ccccc54)cc3)nc3ccccc32)cc1` [Deltarasin, reference compound], the inhibition at 5 µM was 2% at ETA (h); 10% at B2 (h); 6% on CENP-E (h); 20% at V2 (h); 9% at acetylcholinesterase (h); 24% on tyrosine hydroxylase. Besides, the inhibition at 5 µM on IP (PGI2) (h) turned out to be 8%; in data set [4], 7%; on HDAC11 (h), 37%; on HDAC6 (h), 3%; on NK2 (h), 97%; in data set [3], 27%. Also, the “% Inhibition of Control Specific Binding” value in the data set on SKCa channel is on record as 3%; with ER (non-selective) (h) it was -19%. For the same compound, in the data set on S6P phosphorylation (PANC-1, 1 h, 5 μM Deltarasin, 5 min EGF), the “EGF-induced S6P phosphorylation” value is recorded as “reduced in both lines”. For the same compound, the “interaction between mCitrine-KRas and mCherry-PDEδ” value in data set [5] was “abolished the interaction”. Also, the “cell death in time-lapse microscopy” value with Panc-Tu-I cells is on record as “cell death”. The IC50 with PANC-1 (setting [7]) was 6.67 µM; in the data set with Panc-Tu-I (setting [7]), 4.83 µM. Further, the Hill coefficient with PANC-1 was -10.8; with Panc-Tu-I (Panc-Tu-I, CellTiter-Glo, n = 14), -5.3.
